In US20050037946A1, “Methods and compositions for treating cardiovascular disease using 1722, 10280, 59917, 85553, 10653, 9235, 21668, 17794, 2210, 6169, 10102, 21061, 17662, 1468, 12282, 6350, 9035, 1820, 23652, 7301, 8925, 8701, 3533, 9462, 9123, 12788, 17729, 65552, 1261, 21476, 33770, 9380, 2569654, 33556, 53656, …” (Millennium Pharmaceuticals, Inc., priority 2003, published 2005):

What was measured:
6169 mRNA [1] = experiment: 6169 mRNA in Marmoset livers (TaqMan); type: in vivo
Text: (§1) This example describes the TaqMan™ procedure. The Taqman™ procedure is a quantitative, reverse transcription PCR-based approach for detecting mRNA. The RT-PCR reaction exploits the 5′ nuclease activity of AmpliTaq Gold™ DNA Polymerase to cleave a TaqMan™ probe during PCR. Briefly, cDNA was generated from the samples of interest, e.g., heart, kidney, liver, skeletal muscle, and various vessels, and used as the starting material for PCR amplification. In addition to the 5′ and 3′ gene-specific primers, a gene-specific oligonucleotide probe (complementary to the region being amplified) was included in the reaction (i.e., the Taqman™ probe). […]
(§2) During the PCR reaction, cleavage of the probe separates the reporter dye and the quencher dye, resulting in increased fluorescence of the reporter. Accumulation of PCR products is detected directly by monitoring the increase in fluorescence of the reporter dye. When the probe is intact, the proximity of the reporter dye to the quencher dye results in suppression of the reporter fluorescence. […]

8921 mRNA = 8921 mRNA expression in marmosets; type: in vivo
53656 mRNA = 53656 mRNA in livers of Marmosets (TaqMan); type: in vivo
9235 mRNA = 9235 mRNA in livers of African Green Monkeys, cholesterol (TaqMan); type: in vivo; settings: p=0.09
Text: as §1, §2

9325 mRNA = 9325 mRNA in liver of ApoE knockout mice, cholesterol feeding (TaqMan); type: in vivo; settings: two and six months of cholesterol feeding of ApoE knockout mice
Text: as §1, §2

19319 mRNA = 19319 mRNA in ApoE knock-out mice, cholesterol (TaqMan); type: in vivo
Text: as §1, §2

10653 mRNA [2] = experiment: 10653 mRNA in livers of African Green Monkeys, cholesterol (TaqMan); type: in vivo; settings: p=0.05
Text: as §1, §2

17729 mRNA = 17729 mRNA in ApoE knockout mouse models, cholesterol feeding (TaqMan); type: in vivo
Text: as §1, §2

554 mRNA = 554 mRNA in livers of African Green Monkeys, cholesterol; type: in vivo
43969 = 43969 expression in livers of ApoE knock-out mice administered cholesterol (TaqMan); type: in vivo
Text: as §1, §2

2569654 mRNA [3] = experiment: 2569654 mRNA in livers of ApoE knock out mice with cholesterol feeding (TaqMan); type: in vivo; settings: livers of ApoE knock out (KO) mice with cholesterol feeding
Text: as §1, §2

54946 mRNA = 54946 mRNA in livers of Apo E knock out mice, cholesterol (microarray or RT-PCR); type: in vivo; settings: livers of Apo E knock out mice relative to wild-type controls, p=0.001
6169 mRNA [4] = experiment: 6169 mRNA in liver of African Green Monkeys, lipid feeding (TaqMan); type: in vivo; settings: feeding / in the diet
112091 = 112091 expression in livers of African Green Monkeys, cholesterol; type: in vivo
10653 mRNA [5] = experiment: 10653 mRNA in liver of ApoE knockout mice, cholesterol feeding (TaqMan); type: in vivo; settings: two and six months of cholesterol feeding of ApoE knockout mice
Text: as §1, §2

isolated rat arterioles = settings: compared to basal tone; cited from earlier work
10102 mRNA = 10102 mRNA regulation by lipid lowering drugs (TaqMan)
7301 mRNA = 7301 mRNA in livers of marmosets treated with lipid-lowering therapies (TaqMan); type: in vivo
Text: as §1, §2

9123 mRNA = 9123 mRNA in livers of marmosets treated with lipid-lowering therapies (TaqMan); type: in vivo
Text: as §1, §2

10653 mRNA [6] = experiment: 10653 mRNA in livers of marmosets treated with lipid-lowering therapies (TaqMan); type: in vivo
8701 mRNA = 8701 mRNA in livers of marmosets treated with lipid-lowering therapies (TaqMan); type: in vivo
2569654 mRNA [7] = experiment: 2569654 mRNA in marmoset models (TaqMan); type: in vivo
Text: (§3) This example describes the TaqMan™ procedure. The Taqman™ procedure is a quantitative, reverse transcription PCR-based approach for detecting mRNA. The RT-PCR reaction exploits the 5′ nuclease activity of AmpliTaq Gold™ DNA Polymerase to cleave a TaqMan™ probe during PCR. Briefly, cDNA was generated from the samples of interest, e.g., heart, kidney, liver, skeletal muscle, and various vessels, and used as the starting material for PCR amplification. In addition to the 5′ and 3′ gene-specific primers, a gene-specific oligonucleotide probe (complementary to the region being amplified) was included in the reaction (i.e., the Taqman™ probe). The TaqMan™ probe includes the oligonucleotide with a fluorescent reporter dye covalently linked to the 5′ end of the probe (such as FAM (6-carboxyfluorescein), TET (6-carboxy4,7,2′,7′-tetrachlorofluorescein), JOE (6-carboxy-4,5-dichloro-2,7-dimethoxyfluorescein), or VIC) and a quencher dye (TAMRA (6-carboxy-N,N,N′,N′-tetramethylrhodamine) at the 3′ end of the probe.
(§4) During the PCR reaction, cleavage of the probe separates the reporter dye and the quencher dye, resulting in increased fluorescence of the reporter. Accumulation of PCR products is detected directly by monitoring the increase in fluorescence of the reporter dye. When the probe is intact, the proximity of the reporter dye to the quencher dye results in suppression of the reporter fluorescence. During PCR, if the target of interest is present, the probe specifically anneals between the forward and reverse primer sites. The 5′-3′ nucleolytic activity of the AmpliTaq™ Gold DNA Polymerase cleaves the probe between the reporter and the quencher only if the probe hybridizes to the target. The probe fragments are then displaced from the target, and polymerization of the strand continues. The 3′ end of the probe is blocked to prevent extension of the probe during PCR. […] RNA was prepared using the trizol method and treated with DNase to remove contaminating genomic DNA. cDNA was synthesized using standard techniques.

3533 mRNA = 3533 mRNA regulation by lipid lowering drugs (TaqMan)
Text: as §3, §4

9462 mRNA = 9462 mRNA regulation by lipid lowering drugs (TaqMan)
Text: as §1, §2

coronary arteries = settings: disruption of microtubules; cited from earlier work
9380 mRNA = 9380 mRNA in livers of marmosets (TaqMan); type: in vivo
2552 mRNA = 2552 mRNA in marmoset livers (TaqMan); type: in vivo
1261 mRNA = 1261 mRNA in statically cultured or shear-stressed cells (TaqMan); type: cell-based
Text: as §3, §4

isolated hepatocytes = settings: via the CCK-B receptor; cited from earlier work
33556 mRNA = 33556 mRNA in cultured human macrophages (TaqMan); type: cell-based; settings: 18h of stimulation
Text: as §1, §2

12282 mRNA = 12282 mRNA in cultured human monocytes and macrophages (TaqMan); type: cell-based; settings: 18 hours of stimulation
Text: as §1, §2

Syk = experiment: 1673 (Syk) expression in monocytes and macrophages (TaqMan); type: cell-based; settings: monocytes or macrophages
Text: as §1, §2

9035 mRNA = 9035 mRNA in cultured human monocytes and macrophages (TaqMan); type: cell-based; settings: 18 hours of stimulation
Text: as §1, §2

[8] = tested on: serine/threonine kinase Akt; settings: primary human peripheral blood monocytes; cited from earlier work
261 mRNA = 261 mRNA in cultured human monocytes and macrophages (TaqMan); type: cell-based
Text: as §1, §2

Compound: COCc1c(C(C)C)nc(C(C)C)c(/C=C/[C@@H](O)C[C@@H](O)CC(=O)O)c1-c1ccc(F)cc1 [cerivastatin]
- 6169 mRNA upregulated (6169 mRNA [1]): 2.4 fold
- increase in 8921 mRNA expression (8921 mRNA): 1.4 fold
- 53656 mRNA upregulated (53656 mRNA): 1.4 fold

Compound: CC(C)CCC[C@@H](C)[C@H]1CC[C@H]2[C@@H]3CC=C4C[C@@H](O)CC[C@]4(C)[C@H]3CC[C@]12C [cholesterol]
- 9235 mRNA downregulated (9235 mRNA): 1.3 fold
- 9325 mRNA downregulated (9325 mRNA): 1.8 fold
- 19319 mRNA expression (19319 mRNA): downregulated
- 10653 mRNA downregulated (10653 mRNA [2]): 1.5 fold
- 17729 mRNA expression (17729 mRNA): downregulated
- 554 mRNA expression (554 mRNA): down-regulated
- 43969 expression 43969: downregulated
- 2569654 mRNA expression (2569654 mRNA [3]): significantly downregulated
- 54946 mRNA downregulated (54946 mRNA): 0.62 fold
- 6169 mRNA downregulated (6169 mRNA [4]): 1.3 fold
- 112091 expression 112091: down-regulated
- 10653 mRNA downregulated (10653 mRNA [5]): 1.3 fold

Compound: CN[C@H]1CCc2cc(OC)c(OC)c(OC)c2-c2ccc(OC)c(=O)cc21 [demecolcine]
- vasoconstriction (isolated rat arterioles): 32.7%

Compound: Cc1ccc(C)c(OCCCC(C)(C)C(=O)O)c1 [gemfibrozil]
- 10102 mRNA expression (10102 mRNA): significantly upregulated
- 7301 mRNA expression (7301 mRNA): down-reregulated
- 9123 mRNA expression (9123 mRNA): upregulated
- 10653 mRNA expression (10653 mRNA [6]): downregualted
- 8701 mRNA expression (8701 mRNA): upregulated

Compound: O=C(O)c1cccnc1 [niacin]
- 2569654 mRNA expression (2569654 mRNA [7]): upregulated
- 3533 mRNA expression (3533 mRNA): significantly downregulated
- 9462 mRNA expression (9462 mRNA): upregulated
- 10102 mRNA expression (10102 mRNA): significantly upregulated

Compound: COC(=O)Nc1nc2ccc(C(=O)c3cccs3)cc2[nH]1 [nocodazole]
- vascular tension and intracellular calcium levels (coronary arteries): increases
- vasoconstriction (isolated rat arterioles): 29.6%

Compound: CC(C)(Sc1cc(C(C)(C)C)c(O)c(C(C)(C)C)c1)Sc1cc(C(C)(C)C)c(O)c(C(C)(C)C)c1 [probucol]
- 10102 mRNA expression (10102 mRNA): significantly upregulated
- 7301 mRNA expression (7301 mRNA): down-reregulated
- 9123 mRNA expression (9123 mRNA): upregulated
- 10653 mRNA expression (10653 mRNA [6]): downregualted
- 9380 mRNA expression (9380 mRNA): upregulated
- 2552 mRNA expression (2552 mRNA): upregulated

Compound: IL-1β
- 1261 expression in response to angiogenic/inflammatory stimuli (1261 mRNA): transient upregulation

Compound: TNF-α
- 1261 expression in response to angiogenic/inflammatory stimuli (1261 mRNA): transient upregulation

Compound: VEGF
- 1261 expression in response to angiogenic/inflammatory stimuli (1261 mRNA): transient upregulation
- 1261 mRNA expression, timecourse (1261 mRNA; 1 hour of treatment, statically cultured or shear-stressed cells): strong upregulation
- 1261 mRNA expression (1261 mRNA; VEGF individually): upregulated

Compound: cholesystkinin-8 [CCK-8]
- reduction of triacylglycerol secretion (isolated hepatocytes): 53%

Compound: interferon gamma
- 33556 mRNA expression (33556 mRNA): upregulated
- 12282 mRNA expression (12282 mRNA): upregulated
- Syk expression (Syk): No apparent upregulation
- 9035 mRNA expression (9035 mRNA): upregulated
- phosphorylation of the serine/threonine kinase Akt [8]: induces
- 261 mRNA expression (261 mRNA): downregulated
